In ChEMBL document CHEMBL3885881, “DrugMatrix”:

Species: Rattus norvegicus
Experiment: DrugMatrix - Regimen: Daily Repeat
Format: toxicity, organism-based, Sprague-Dawley
Parameters: regimen Daily Repeat, gender Male, age 6-8 weeks
Conditions: in vivo, po, route oral GAVAGE, […]; for ABSOLUTE BASOPHIL / ABSOLUTE EOSINOPHIL / ABSOLUTE LYMPHOCYTE / ABSOLUTE SEGMENTED NEUTROPHIL / BASOPHIL / EOSINOPHIL / ERYTHROCYTE COUNT / HEMATOCRIT / HEMOGLOBIN / LYMPHOCYTE / MEAN CORPUSCULAR HEMOGLOBIN / MEAN CORPUSCULAR HEMOGLOBIN CONCENTRATION / MEAN CORPUSCULAR VOLUME / MONOCYTE / NUCLEATED RED BLOOD CELLS / PLATELET COUNT: tissue Blood; for ALANINE AMINOTRANSFERASE / ALBUMIN / ALKALINE PHOSPHATASE / ASPARTATE AMINOTRANSFERASE / BLOOD UREA NITROGEN / CARBON DIOXIDE / CHOLESTEROL / CREATINE PHOSPHOKINASE / CREATININE / GLUCOSE / LACTATE DEHYDROGENASE / POTASSIUM / SODIUM / TOTAL BILIRUBIN / TOTAL PROTEIN / URIC ACID: tissue Plasma
[1] = 20 mg/kg, 120 h, dose level Low, time 5 day
[2] = 2000 mg/kg, 72 h, dose level High, time 3 day
[3] = 2000 mg/kg, 120 h, dose level High, time 5 day

Q: With COc1ccccc1OCCNCC(O)COc1cccc2[nH]c3ccccc3c12 (stereo unspecified) [CARVEDILOL] as the molecule, how does the “ABSOLUTE BASOPHIL” value [1] read?
A: 0 CELLS/uL

Q: What about the “ABSOLUTE EOSINOPHIL” value [1] of the same molecule?
A: 48 CELLS/uL

Q: And the “ABSOLUTE LYMPHOCYTE” value [1]?
A: 6685 CELLS/uL

Q: What about the “ABSOLUTE SEGMENTED NEUTROPHIL” value [1] of the same molecule?
A: 615 CELLS/uL

Q: What about the BASOPHIL [1] of the same molecule?
A: 0%

Q: And the EOSINOPHIL [1]?
A: 0.67%

Q: What about the “ERYTHROCYTE COUNT” value [1] of the same molecule?
A: 5.51 x10E6/uL

Q: And the HEMATOCRIT [1]?
A: 34.9%

Q: What about the HEMOGLOBIN [1] of the same molecule?
A: 13.3 G/DL

Q: And the LYMPHOCYTE [1]?
A: 90.33%

Q: And the “MEAN CORPUSCULAR HEMOGLOBIN” value [1]?
A: 24.17 pg

Q: What about the “MEAN CORPUSCULAR HEMOGLOBIN CONCENTRATION” value [1] of the same molecule?
A: 38.13 G/DL

Q: What about the “MEAN CORPUSCULAR VOLUME” value [1] of the same molecule?
A: 63.4 fL

Q: And the MONOCYTE [1]?
A: 0.67%

Q: What about the “NUCLEATED RED BLOOD CELLS” value [1] of the same molecule?
A: 0.33 /100WBC

Q: And the “PLATELET COUNT” value [1]?
A: 1008 x10E3/uL

Q: What about the “ALANINE AMINOTRANSFERASE” value [1] of the same molecule?
A: 58.33 u/L

Q: What about the ALBUMIN [1] of the same molecule?
A: 3.93 G/DL

Q: What about the “ALKALINE PHOSPHATASE” value [1] of the same molecule?
A: 439.33 u/L

Q: And the “ASPARTATE AMINOTRANSFERASE” value [1]?
A: 81.67 u/L

Q: And the “BLOOD UREA NITROGEN” value [1]?
A: 15 mg/dL

Q: And the “CARBON DIOXIDE” value [1]?
A: 30.67 mmol/L

Q: And the CHOLESTEROL [1]?
A: 57 mg/dL

Q: And the “CREATINE PHOSPHOKINASE” value [1]?
A: 167.67 u/L

Q: And the CREATININE [1]?
A: 0.13 mg/dL

Q: What about the GLUCOSE [1] of the same molecule?
A: 153.67 mg/dL

Q: What about the “LACTATE DEHYDROGENASE” value [1] of the same molecule?
A: 137 u/L

Q: What about the POTASSIUM [1] of the same molecule?
A: 5.49 MEQ/L

Q: And the SODIUM [1]?
A: 144.75 MEQ/L

Q: What about the “TOTAL BILIRUBIN” value [1] of the same molecule?
A: 0.23 mg/dL

Q: What about the “TOTAL PROTEIN” value [1] of the same molecule?
A: 5.63 G/DL

Q: What about the “URIC ACID” value [1] of the same molecule?
A: 0.5 mg/dL

Q: And the “ABSOLUTE BASOPHIL” value [2]?
A: 0 CELLS/uL

Q: What about the “ABSOLUTE EOSINOPHIL” value [2] of the same molecule?
A: 24.67 CELLS/uL

Q: And the “ABSOLUTE LYMPHOCYTE” value [2]?
A: 8554.33 CELLS/uL

Q: And the “ABSOLUTE SEGMENTED NEUTROPHIL” value [2]?
A: 841.33 CELLS/uL

Q: And the BASOPHIL [2]?
A: 0%

Q: What about the EOSINOPHIL [2] of the same molecule?
A: 0.33%

Q: What about the “ERYTHROCYTE COUNT” value [2] of the same molecule?
A: 5.87 x10E6/uL

Q: And the HEMATOCRIT [2]?
A: 36.37%

Q: And the HEMOGLOBIN [2]?
A: 13.9 G/DL

Q: What about the LYMPHOCYTE [2] of the same molecule?
A: 88%

Q: What about the “MEAN CORPUSCULAR HEMOGLOBIN” value [2] of the same molecule?
A: 23.67 pg

Q: And the “MEAN CORPUSCULAR HEMOGLOBIN CONCENTRATION” value [2]?
A: 38.23 G/DL

Q: And the “MEAN CORPUSCULAR VOLUME” value [2]?
A: 61.93 fL

Q: And the MONOCYTE [2]?
A: 1.67%

Q: And the “NUCLEATED RED BLOOD CELLS” value [2]?
A: 0 /100WBC

Q: What about the “PLATELET COUNT” value [2] of the same molecule?
A: 1204 x10E3/uL

Q: What about the “ALANINE AMINOTRANSFERASE” value [2] of the same molecule?
A: 147 u/L

Q: What about the ALBUMIN [2] of the same molecule?
A: 3.83 G/DL

Q: What about the “ALKALINE PHOSPHATASE” value [2] of the same molecule?
A: 433.33 u/L

Q: And the “ASPARTATE AMINOTRANSFERASE” value [2]?
A: 253.67 u/L

Q: And the “BLOOD UREA NITROGEN” value [2]?
A: 12.33 mg/dL

Q: And the “CARBON DIOXIDE” value [2]?
A: 35.67 mmol/L

Q: What about the CHOLESTEROL [2] of the same molecule?
A: 135.33 mg/dL

Q: What about the “CREATINE PHOSPHOKINASE” value [2] of the same molecule?
A: 315.33 u/L

Q: And the CREATININE [2]?
A: 0.15 mg/dL

Q: What about the GLUCOSE [2] of the same molecule?
A: 110.33 mg/dL

Q: And the “LACTATE DEHYDROGENASE” value [2]?
A: 180 u/L

Q: And the POTASSIUM [2]?
A: 4.83 MEQ/L

Q: And the SODIUM [2]?
A: 143.43 MEQ/L

Q: And the “TOTAL BILIRUBIN” value [2]?
A: 0.27 mg/dL

Q: What about the “TOTAL PROTEIN” value [2] of the same molecule?
A: 5.7 G/DL

Q: And the “URIC ACID” value [2]?
A: 0.7 mg/dL

Q: What about the “ABSOLUTE BASOPHIL” value [3] of the same molecule?
A: 0 CELLS/uL

Q: What about the “ABSOLUTE EOSINOPHIL” value [3] of the same molecule?
A: 92.67 CELLS/uL

Q: And the “ABSOLUTE LYMPHOCYTE” value [3]?
A: 7992.67 CELLS/uL

Q: And the “ABSOLUTE SEGMENTED NEUTROPHIL” value [3]?
A: 4483.67 CELLS/uL

Q: And the BASOPHIL [3]?
A: 0%

Q: And the EOSINOPHIL [3]?
A: 0.67%

Q: And the “ERYTHROCYTE COUNT” value [3]?
A: 7.13 x10E6/uL

Q: What about the HEMATOCRIT [3] of the same molecule?
A: 41.5%

Q: And the HEMOGLOBIN [3]?
A: 15.4 G/DL

Q: And the LYMPHOCYTE [3]?
A: 64.67%

Q: What about the “MEAN CORPUSCULAR HEMOGLOBIN” value [3] of the same molecule?
A: 21.77 pg

Q: What about the “MEAN CORPUSCULAR HEMOGLOBIN CONCENTRATION” value [3] of the same molecule?
A: 37.27 G/DL

Q: And the “MEAN CORPUSCULAR VOLUME” value [3]?
A: 58.43 fL

Q: What about the MONOCYTE [3] of the same molecule?
A: 1.67%

Q: What about the “NUCLEATED RED BLOOD CELLS” value [3] of the same molecule?
A: 0 /100WBC

Q: What about the “PLATELET COUNT” value [3] of the same molecule?
A: 1163.67 x10E3/uL

Q: What about the “ALANINE AMINOTRANSFERASE” value [3] of the same molecule?
A: 380 u/L

Q: And the ALBUMIN [3]?
A: 3.27 G/DL

Q: And the “ALKALINE PHOSPHATASE” value [3]?
A: 444.33 u/L

Q: What about the “ASPARTATE AMINOTRANSFERASE” value [3] of the same molecule?
A: 620.33 u/L

Q: What about the “BLOOD UREA NITROGEN” value [3] of the same molecule?
A: 39.33 mg/dL

Q: What about the “CARBON DIOXIDE” value [3] of the same molecule?
A: 27 mmol/L

Q: And the CHOLESTEROL [3]?
A: 132.33 mg/dL

Q: And the “CREATINE PHOSPHOKINASE” value [3]?
A: 3005.33 u/L

Q: What about the CREATININE [3] of the same molecule?
A: 0.42 mg/dL

Q: And the GLUCOSE [3]?
A: 124 mg/dL

Q: What about the “LACTATE DEHYDROGENASE” value [3] of the same molecule?
A: 673.67 u/L

Q: And the POTASSIUM [3]?
A: 6.23 MEQ/L

Q: What about the SODIUM [3] of the same molecule?
A: 138.53 MEQ/L

Q: And the “TOTAL BILIRUBIN” value [3]?
A: 0.4 mg/dL

Q: And the “TOTAL PROTEIN” value [3]?
A: 5.33 G/DL

Q: And the “URIC ACID” value [3]?
A: 1.5 mg/dL
